Measured values from patent US10793566B2, “Bruton's tyrosine kinase inhibitors” (Zibo Biopolar Changsheng Pharmaceutical Co. Ltd., priority 2016, dated 2020).

Target: BTK (Homo sapiens (Human), UniProt Q06187)
Assay: Btk occupancy in cellular assays (PCI-33380 labeling)
Format: cell-based
Conditions: Jeko-1 cells, 1.5 h pre-incubation, PCI-33380 probe
Protocol: Btk Occupancy in Cellular Assays
For PCI-33380 labeling of human B cells, 10^6 Jeko-1 cells were pre-incubated with compound for 1.5 h before labeling. Then cells were treated with PCI-33380 at 5 μM for 1 h. Washed, lysed in Ripa buffer containing sample reducing agent, and analyzed by SDS/PAGE and fluorescent gel scanning using a Typhoon scanner 9500 (GE Healthcare) (Ex, 532 nm; Em, 555 nm). The gel was then blotted and total Btk levels detected by standard Western blot with Btk antibody (CST).

Chain of BTK (Q06187 whole entry): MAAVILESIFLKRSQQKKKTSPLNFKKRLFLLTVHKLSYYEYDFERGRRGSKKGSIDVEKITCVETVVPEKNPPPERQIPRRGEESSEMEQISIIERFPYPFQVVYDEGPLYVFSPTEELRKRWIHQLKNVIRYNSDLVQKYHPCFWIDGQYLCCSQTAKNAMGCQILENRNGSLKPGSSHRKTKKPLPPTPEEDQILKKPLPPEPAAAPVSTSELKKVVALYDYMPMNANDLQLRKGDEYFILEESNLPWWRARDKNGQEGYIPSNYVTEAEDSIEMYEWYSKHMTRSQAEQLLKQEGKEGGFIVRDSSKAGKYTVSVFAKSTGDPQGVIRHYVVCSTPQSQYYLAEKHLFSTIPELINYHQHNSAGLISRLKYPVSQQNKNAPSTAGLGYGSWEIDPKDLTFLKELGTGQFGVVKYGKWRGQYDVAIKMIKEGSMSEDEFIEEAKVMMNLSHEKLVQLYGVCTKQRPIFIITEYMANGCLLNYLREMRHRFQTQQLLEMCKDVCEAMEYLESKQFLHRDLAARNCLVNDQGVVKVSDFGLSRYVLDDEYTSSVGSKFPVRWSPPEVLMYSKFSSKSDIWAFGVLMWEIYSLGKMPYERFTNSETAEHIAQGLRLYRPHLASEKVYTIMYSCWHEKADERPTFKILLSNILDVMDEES

| SMILES | concentration sufficient to fully occupy the active site of Btk [nM] |
| --- | --- |
| C=CC(=O)N1CCC[C@@H](n2nc(-c3ccc(Oc4cccc(F)c4F)cc3)c3cnccc32)C1 [Example 17, (R)-1-(3-(3-(4-(2,3-difluorophenoxy)phenyl)-1H-pyrazolo[4,3-c]pyridin-1-yl)piperidin-1-yl)prop-2-en-1-one] | 100 |
| C=CC(=O)N1CC[C@@H](n2nc3ccncc3c2-c2ccc(Oc3cccc(Cl)c3Cl)cc2)C1 [Example 41, (R)-1-(3-(3-(4-(2,3-dichlorophenoxy)phenyl)-2H-pyrazolo[4,3-c]pyridin-2-yl)pyrrolidin-1-yl)prop-2-en-1-one] | 100 |
| C=CC(=O)N1CCC[C@@H](n2nc3ccncc3c2-c2ccc(Oc3cccc(Cl)c3Cl)cc2)C1 [Example 43, (R)-1-(3-(3-(4-(2,3-dichlorophenoxy)phenyl)-2H-pyrazolo[4,3-c]pyridin-2-yl)piperidin-1-yl)prop-2-en-1-one] | 100 |
| C=CC(=O)N1CC[C@@H](n2nc(-c3ccc(Oc4cccc(OC)c4Cl)cc3)c3cncc(OC)c32)C1 [Example 69, (R)-1-(3-(3-(4-(2-chloro-3-methoxyphenoxy)phenyl)-7-methoxy-1H-pyrazolo[4,3-c]pyridin-1-yl)pyrrolidin-1-yl)prop-2-en-1-one] | 100 |

Now from value to compound:

| concentration sufficient to fully occupy the active site of Btk [nM] | SMILES |
| --- | --- |
| 25 | C=CC(=O)N1CCC[C@@H](n2nc(-c3ccc(Oc4cccc(OC)c4F)cc3)c3cncc(OCCC)c32)C1 [Example 77, (R)-1-(3-(3-(4-(2-fluoro-3-methoxyphenoxy)phenyl)-7-propoxy-1H-pyrazolo[4,3-c]pyridin-1-yl)piperidin-1-yl)prop-2-en-1-one] |
| 50 | C=CC(=O)N1CCC[C@@H](n2nc(-c3ccc(Oc4cccc(OC)c4F)cc3)c3c(C)nccc32)C1 [Example 78, (R)-1-(3-(3-(4-(2-fluoro-3-methoxyphenoxy)phenyl)-4-methyl-1H-pyrazolo[4,3-c]pyridin-1-yl)piperidin-1-yl)prop-2-en-1-one] |
| 50 | C=CC(=O)N1CC[C@@H](n2nc(-c3ccc(Oc4cccc(OC)c4F)cc3)c3cncc(OC)c32)C1 [Example 79, (R)-1-(3-(3-(4-(2-fluoro-3-methoxyphenoxy)phenyl)-7-methoxy-1H-pyrazolo[4,3-c]pyridin-1-yl)pyrrolidin-1-yl)prop-2-en-1-one] |
| 50 | C=CC(=O)N1CC[C@@H](n2nc(-c3ccc(Oc4cccc(OC)c4F)cc3)c3cncc(OCC)c32)C1 [Example 80, (R)-1-(3-(7-ethoxy-3-(4-(2-fluoro-3-methoxyphenoxy)phenyl)-1H-pyrazolo[4,3-c]pyridin-1-yl)pyrrolidin-1-yl)prop-2-en-1-one] |
| 100 | C=CC(=O)N1CCC[C@@H](n2nc(-c3ccc(Oc4cccc(OC)c4F)cc3)c3cncc(OCCO)c32)C1 [Example 98, (R)-1-(3-(3-(4-(2-fluoro-3-methoxyphenoxy)phenyl)-7-(2-hydroxyethoxy)-1H-pyrazolo[4,3-c]pyridin-1-yl)piperidin-1-yl)prop-2-en-1-one] |
| 100 | C=CC(=O)N1CCC[C@@H](n2nc(-c3ccc(Oc4cccc(OC)c4F)cc3)c3cncc(OC4CCOC4)c32)C1 (stereo partly drawn) [Example 99, 1-((3R)-3-(3-(4-(2-fluoro-3-methoxyphenoxy)phenyl)-7-((tetrahydrofuran-3-yl)oxy)-1H-pyrazolo[4,3-c]pyridin-1-yl)piperidin-1-yl)prop-2-en-1-one] |
